The text below walks through data of patent publication US20120214862A1, “MODULATION OF FACTOR 7 EXPRESSION” (ISIS Pharmaceuticals, Inc., priority 2009, published 2012).

In the oligonucleotide strings, read from the 5' end, every base follows the letter of its sugar. An asterisk marks phosphorothioate; unmarked linkages are phosphodiester. Other units and linkages are bracketed, terminal groups are in braces. A string of capitals states the bases alone. e = 2'-O-(2-methoxyethyl) (MOE); [5mC] = 5-methylcytosine; d = 2'-deoxy (DNA)

The subject of the first series is human Factor 7 mRNA. Briefly: Antisense inhibition of human Factor 7 mRNA in HepB3 cells, lipofectin, 50 nM, real-time RT-PCR. In kind it is cell-based. The note with it: Example 1; HepB3 cells, lipofectin, 50 nM, ~24 h, relative to untreated control cells. The method in brief:
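After transfection of wells containing 4,000 cells, treatment ran for approximately 24 h. RIBOGREEN®-measured total RNA served for normalisation, and inhibition was calculated as a percentage of untreated control.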
Background: Quantitative PCR measures a nucleic acid by following its amplification.
“407904 (antisense eG*eA*eA*eA*e[5mC]*dA*dG*dT*dG*dG*dG*d[5mC]*d[5mC]*dG*d[5mC]*eG*eG*eA*eG*eA) [compound 407904]”: the “% Inhibition (human Factor 7 mRNA)” value came out at 83%.

On to “407889 (antisense eT*e[5mC]*e[5mC]*eT*eG*dG*dG*dT*dT*dA*d[5mC]*dG*dA*dA*dG*eA*e[5mC]*eT*eG*e[5mC]) [compound 407889]”, for which the “% Inhibition (human Factor 7 mRNA)” value amounted to 54%.

As for “407642 (antisense e[5mC]*eA*eG*e[5mC]*eA*dG*d[5mC]*d[5mC]*dT*dG*dA*dG*dG*d[5mC]*d[5mC]*eA*eG*e[5mC]*eA*eG) [compound 407642]”, the “% Inhibition (human Factor 7 mRNA)” value was 78%.

Consider “407668 (antisense eG*eA*eA*eG*e[5mC]*d[5mC]*dT*dT*dA*d[5mC]*d[5mC]*dT*dG*d[5mC]*d[5mC]*eA*eT*eG*eG*eA) [compound 407668]”, for which the “% Inhibition (human Factor 7 mRNA)” value was 54%.

As to “407605 (antisense eT*eT*eG*eA*eG*dG*d[5mC]*dA*d[5mC]*dA*d[5mC]*dT*dG*dG*dT*e[5mC]*e[5mC]*e[5mC]*e[5mC]*eA) [compound 407605]”, the “% Inhibition (human Factor 7 mRNA)” value is on record as 58%.

Turning to “407600 (antisense eT*eG*eA*eA*eG*d[5mC]*d[5mC]*d[5mC]*dA*dA*dG*d[5mC]*dA*dG*dA*eA*eG*eG*e[5mC]*eA) [compound 407600]”, the “% Inhibition (human Factor 7 mRNA)” value is given as 61%.

In the case of “407644 (antisense eG*eA*eG*eG*eA*d[5mC]*dA*dG*d[5mC]*dA*d[5mC]*dA*d[5mC]*dA*dT*eG*eG*eA*eG*eT) [compound 407644]”, the “% Inhibition (human Factor 7 mRNA)” value amounted to 66%.

The same series, now with this note: Example 4; HepB3 cells, lipofectin, 50 nM, ~24 h, relative to untreated control.
“422196 (antisense eT*eA*e[5mC]*dT*dG*dA*dG*d[5mC]*dG*d[5mC]*dG*dG*dA*dA*dG*dA*dA*eG*eG*eG) [compound 422196]”: the “% Inhibition (human Factor 7 mRNA)” value came out at 2%.

Regarding “422264 (antisense e[5mC]*eG*dG*dA*dA*dG*dA*dA*dG*dG*dG*dA*d[5mC]*dG*dG*eA*eA*eG*eG*eT) [compound 422264]”, the “% Inhibition (human Factor 7 mRNA)” value came to 24%.

As for “422191 (antisense eA*eG*e[5mC]*dG*d[5mC]*dG*dG*dA*dA*dG*dA*dA*dG*dG*dG*dA*d[5mC]*eG*eG*eA) [compound 422191]”, the “% Inhibition (human Factor 7 mRNA)” value worked out at 27%.

Take “422192 (antisense eG*eA*eG*d[5mC]*dG*d[5mC]*dG*dG*dA*dA*dG*dA*dA*dG*dG*dG*dA*e[5mC]*eG*eG) [compound 422192]”: the “% Inhibition (human Factor 7 mRNA)” value was found to be 27%.

The series is the same for the next values; noted with them: Example 6 microwalk, nucleobases 15098 to 15122 of SEQ ID NO: 1; HepB3, lipofectin, 50 nM, ~24 h.
For the substance “422136 (antisense e[5mC]*eA*eG*e[5mC]*eA*d[5mC]*dA*d[5mC]*dA*dT*dG*dG*dA*dG*dT*e[5mC]*eA*eG*e[5mC]*eA) [compound 422136]”, the “% Inhibition (human Factor 7 mRNA)” value worked out at 57%.

The same series, now with this note: HepB3 cells, lipofectin, 50 nM antisense oligonucleotide, approximately 24 hours, primer probe set RTS 2927, relative to untreated control.
As for “416532 (antisense eG*eG*eA*e[5mC]*e[5mC]*d[5mC]*dA*dG*dA*dT*dG*dA*d[5mC]*d[5mC]*dA*eG*e[5mC]*eA*eG*eG) [compound 416532]”, the “% Inhibition of human Factor 7 mRNA levels” value was found to be 12%.

Regarding “416500 (antisense e[5mC]*eT*eG*eA*eA*d[5mC]*dA*d[5mC]*d[5mC]*d[5mC]*d[5mC]*dA*dG*d[5mC]*dT*eG*eA*eG*eA*eG) [compound 416500]”, the “% Inhibition of human Factor 7 mRNA levels” value was 1%.

As for “416520 (antisense e[5mC]*e[5mC]*e[5mC]*eT*e[5mC]*dT*dG*d[5mC]*dA*dA*dA*dT*dA*dT*dG*eG*eG*eA*e[5mC]*e[5mC]) [compound 416520]”, the “% Inhibition of human Factor 7 mRNA levels” value amounted to 14%.

Consider “416453 (antisense eG*eA*eT*eT*eT*dT*dG*dT*d[5mC]*dG*dA*dA*dA*d[5mC]*dA*eG*eT*eG*eG*eG) [compound 416453]”, for which the “% Inhibition of human Factor 7 mRNA levels” value was determined as 45%.

As to “416429 (antisense eA*e[5mC]*eG*e[5mC]*e[5mC]*dG*dT*dG*dG*dG*d[5mC]*dT*dT*d[5mC]*d[5mC]*eT*e[5mC]*e[5mC]*eT*eG) [compound 416429]”, the “% Inhibition of human Factor 7 mRNA levels” value was 47%.

For “416509 (antisense eA*eG*eG*eA*eG*d[5mC]*d[5mC]*d[5mC]*dG*dA*dG*dT*dT*d[5mC]*dT*eG*e[5mC]*eA*eG*eG) [compound 416509]”, the “% Inhibition of human Factor 7 mRNA levels” value is given as 56%.

Consider “416489 (antisense eG*eT*eG*e[5mC]*eA*dG*d[5mC]*dT*dT*dG*d[5mC]*d[5mC]*dA*dG*dG*eT*e[5mC]*e[5mC]*eT*e[5mC]) [compound 416489]”, for which the “% Inhibition of human Factor 7 mRNA levels” value was determined as 38%.

On to “416569 (antisense eG*e[5mC]*e[5mC]*eT*eG*dG*dT*dG*dT*dG*d[5mC]*dA*d[5mC]*dA*d[5mC]*eA*eT*eT*eG*eT) [compound 416569]”, for which the “% Inhibition of human Factor 7 mRNA levels” value stood at 12%.

Take “416427 (antisense e[5mC]*e[5mC]*e[5mC]*eT*eG*dA*dA*dG*d[5mC]*d[5mC]*d[5mC]*dA*dA*dG*d[5mC]*eA*eG*eA*eA*eG) [compound 416427]”: the “% Inhibition of human Factor 7 mRNA levels” value is 5%.

As to “416474 (antisense eT*eG*eT*e[5mC]*eT*dG*d[5mC]*d[5mC]*dT*d[5mC]*d[5mC]*dA*dG*dG*dA*e[5mC]*eA*eA*e[5mC]*e[5mC]) [compound 416474]”, the “% Inhibition of human Factor 7 mRNA levels” value worked out at 40%.

Regarding “416556 (antisense eA*eT*eA*eG*e[5mC]*dT*dT*dT*dG*dA*dT*d[5mC]*d[5mC]*dA*dA*eT*eG*e[5mC]*eT*e[5mC]) [compound 416556]”, the “% Inhibition of human Factor 7 mRNA levels” value is 53%.

In the case of “416516 (antisense eG*eT*eG*eA*eG*dA*dA*dT*dA*d[5mC]*dA*dA*d[5mC]*dA*dG*eA*eT*eG*eA*eG) [compound 416516]”, the “% Inhibition of human Factor 7 mRNA levels” value was 24%.

The series is the same for the next values; noted with them: HepB3 cells; gapmers (5-10-5, 3-14-3, 2-13-5 MOE) targeted to nucleobases 4868 to 4899 of SEQ ID NO: 1.
Turning to “422144 (antisense e[5mC]*e[5mC]*e[5mC]*eG*eA*dG*dT*dT*d[5mC]*dT*dG*d[5mC]*dA*dG*dG*eA*eG*e[5mC]*eG*eG) [compound 422144]”, the “% Inhibition of human Factor 7 mRNA levels” value is 58%.

As to “422218 (antisense e[5mC]*eG*eA*dG*dT*dT*d[5mC]*dT*dG*d[5mC]*dA*dG*dG*dA*dG*d[5mC]*dG*eG*e[5mC]*e[5mC]) [compound 422218]”, the “% Inhibition of human Factor 7 mRNA levels” value came to 70%.

Consider “416509 (antisense eA*eG*eG*eA*eG*d[5mC]*d[5mC]*d[5mC]*dG*dA*dG*dT*dT*d[5mC]*dT*eG*e[5mC]*eA*eG*eG) [compound 416509]”, for which the “% Inhibition of human Factor 7 mRNA levels” value is recorded as 60%.

“422301 (antisense eG*eG*dA*dG*d[5mC]*d[5mC]*d[5mC]*dG*dA*dG*dT*dT*d[5mC]*dT*dG*e[5mC]*eA*eG*eG*eA) [compound 422301]”: the “% Inhibition of human Factor 7 mRNA levels” value was found to be 67%.

Staying with this series, now noted: HepB3 cells; gapmers targeted to nucleobases 11830 to 11869 of SEQ ID NO: 1 (Table 9).
Regarding “422160 (antisense e[5mC]*eA*eA*dT*dG*dG*dT*d[5mC]*dA*dG*dG*dG*d[5mC]*dT*dG*dG*dT*eT*eT*eT) [compound 422160]”, the “% Inhibition of human Factor 7 mRNA levels” value came to 42%.

Consider “422159 (antisense eA*eA*eT*dG*dG*dT*d[5mC]*dA*dG*dG*dG*d[5mC]*dT*dG*dG*dT*dT*eT*eT*eG) [compound 422159]”, for which the “% Inhibition of human Factor 7 mRNA levels” value came out at 45%.

Regarding “422171 (antisense eG*eG*e[5mC]*dT*dG*dA*dG*dG*dA*dG*dA*d[5mC]*dA*dA*dT*dG*dG*eT*e[5mC]*eA) [compound 422171]”, the “% Inhibition of human Factor 7 mRNA levels” value is recorded as 61%.

“422173 (antisense e[5mC]*eT*eG*dG*d[5mC]*dT*dG*dA*dG*dG*dA*dG*dA*d[5mC]*dA*dA*dT*eG*eG*eT) [compound 422173]”: the “% Inhibition of human Factor 7 mRNA levels” value amounted to 51%.

Take “422161 (antisense eA*e[5mC]*eA*dA*dT*dG*dG*dT*d[5mC]*dA*dG*dG*dG*d[5mC]*dT*dG*dG*eT*eT*eT) [compound 422161]”: the “% Inhibition of human Factor 7 mRNA levels” value worked out at 53%.

In the case of “422238 (antisense eA*e[5mC]*dA*dA*dT*dG*dG*dT*d[5mC]*dA*dG*dG*dG*d[5mC]*dT*eG*eG*eT*eT*eT) [compound 422238]”, the “% Inhibition of human Factor 7 mRNA levels” value stood at 64%.

In the case of “422089 (antisense eG*eT*e[5mC]*eA*eG*dG*dG*d[5mC]*dT*dG*dG*dT*dT*dT*dT*eG*eG*eA*eG*eG) [compound 422089]”, the “% Inhibition of human Factor 7 mRNA levels” value is 22%.

Still in this series, the particulars now being: HepB3 cells; gapmers targeted to nucleobases 13760 to 13789 of SEQ ID NO: 1 (Table 10).
“422253 (antisense e[5mC]*e[5mC]*dG*d[5mC]*d[5mC]*dG*dG*d[5mC]*dT*d[5mC]*dT*dG*d[5mC]*dT*d[5mC]*eA*eT*e[5mC]*e[5mC]*e[5mC]) [compound 422253]”: the “% Inhibition of human Factor 7 mRNA levels” value is on record as 61%.

In the case of “422184 (antisense eT*eG*e[5mC]*dG*d[5mC]*d[5mC]*dA*d[5mC]*d[5mC]*d[5mC]*dG*d[5mC]*d[5mC]*dG*dG*d[5mC]*dT*e[5mC]*eT*eG) [compound 422184]”, the “% Inhibition of human Factor 7 mRNA levels” value turned out to be 55%.

“422113 (antisense eG*e[5mC]*e[5mC]*eA*e[5mC]*d[5mC]*d[5mC]*dG*d[5mC]*d[5mC]*dG*dG*d[5mC]*dT*d[5mC]*eT*eG*e[5mC]*eT*e[5mC]) [compound 422113]”: the “% Inhibition of human Factor 7 mRNA levels” value turned out to be 68%.

Still in this series, the particulars now being: HepB3 cells; gapmers targeted to nucleobases 14707 to 14732 of SEQ ID NO: 1 (Table 11).
As to “407642 (antisense e[5mC]*eA*eG*e[5mC]*eA*dG*d[5mC]*d[5mC]*dT*dG*dA*dG*dG*d[5mC]*d[5mC]*eA*eG*e[5mC]*eA*eG) [compound 407642]”, the “% Inhibition of human Factor 7 mRNA levels” value is on record as 63%.

On to “422205 (antisense eA*eG*e[5mC]*dA*dG*d[5mC]*d[5mC]*dT*dG*dA*dG*dG*d[5mC]*d[5mC]*dA*dG*d[5mC]*eA*eG*eA) [compound 422205]”, for which the “% Inhibition of human Factor 7 mRNA levels” value is given as 63%.

Take “422279 (antisense eA*eG*d[5mC]*d[5mC]*dT*dG*dA*dG*dG*d[5mC]*d[5mC]*dA*dG*d[5mC]*dA*eG*eA*eT*e[5mC]*eA) [compound 422279]”: the “% Inhibition of human Factor 7 mRNA levels” value was determined as 56%.

On to “422132 (antisense eG*e[5mC]*eA*eG*e[5mC]*d[5mC]*dT*dG*dA*dG*dG*d[5mC]*d[5mC]*dA*dG*e[5mC]*eA*eG*eA*eT) [compound 422132]”, for which the “% Inhibition of human Factor 7 mRNA levels” value is reported as 54%.
